Test [1] can be described thus: Cytotoxicity against human KB/VJ300 cells after 3 days by MTT assay. The format is functional, cell-based. To be noted: KB/VJ300, 72 h. On the technique in general: Tetrazolium dyes change colour on reduction, which living cells bring about.
The subject of another test is KB. Put plainly: Cytotoxicity against human KB cells after 3 days by MTT assay. The format is functional, cell-based. To be noted: 72 h.

Broadly, the IC50 is the point on the concentration scale where inhibition reaches its midpoint. Low readings indicate higher potency, high ones lower potency.

In brackets after ≈: the same amount, converted by molar mass.

For the molecule `CC[C@@H]1CN2CC[C@@]34C5=C(C[C@]6(CN5c5ccccc53)C3=Nc5ccccc5[C@@]35CCN3C[C@@H](CC)[C@@H]6C[C@H]35)[C@H]1C[C@H]24` [LEUCORIDINE A], the IC50 in test [1] came out at 2.39 µg/mL (≈ 4.29 µM); in the test with KB, 0.57 µg/mL (≈ 1.02 µM).
Consider `CCC1=CN2CC[C@@]34C(=Nc5ccccc53)[C@@]3(CC5=C6N(C3)c3ccccc3[C@@]63CCN6C[C@@H](CC)[C@@H]5C[C@H]63)[C@H]1C[C@H]24` [LEUCORIDINE B], for which the IC50 in test [1] amounted to 12 µg/mL (≈ 21.7 µM); in the test on KB, 11.6 µg/mL (≈ 20.9 µM).
For the molecule `CC[C@@H]1CN2CC[C@@]34C5=C(C[C@]6(CN5c5ccccc53)C(=O)[C@@]3(c5ccccc5N)CCN5C[C@@H](CC)[C@@H]6C[C@H]53)[C@H]1C[C@H]24` [LEUCORIDINE C], the IC50 was 11.8 µg/mL (≈ 20.5 µM) in test [1] and 10.9 µg/mL (≈ 19 µM) with KB.
On the same counts, the results for `C=C1[C@H]2C[C@@H]3N(CC[C@@]34c3cccc(C[C@@H]5C6=Nc7ccccc7[C@@]67CCN6C[C@@H](CC)[C@@H]5C[C@H]67)c3N[C@@H]14)C[C@H]2CC` [LEUCORIDINE D] are 13.3 µg/mL (≈ 23.8 µM) and 12.5 µg/mL (≈ 22.4 µM).

The values are drawn from ChEMBL document CHEMBL1165994, “Leucoridines A-D, cytotoxic Strychnos-Strychnos bisindole alkaloids from Leuconotis” (J Nat Prod, 2010).
